One block for each compound: values may come before it.
Columns and labels:
[1] = test system: U87 human glioblastoma cells; experiment: Cell viability assay, Presto Blue, 48 h; format: cell-based
Description: FIG. 22 Cytotoxicity of naked curcumin, curcumin conjugated PMNPs and Sol-Gel Nps and blanks (without curcumin) performed on U87 human glioblastoma cells after 48 hours of incubation. Note that 1 μM equivalent curcumin concentration corresponds to 16.7 μg/mL of nanoparticles. […] The data represents the mean±SE, n=3 to 18.
Cells were plated in 24-well trays and allowed to become confluent then incubated with naked curcumin or different curcumin NP concentrations for 48 h. Cell viability was quantified using Presto Blue (Invitrogen) an assay that contains a cell permeable resazurin-based solution that is modified by the reducing environment of the viable cell becoming highly fluorescent. Using a plate reader, cell viability was quantified after 0.5-1 hours of incubation with Presto Blue. All measurements were always accompanied by control wells and by calibration wells to account for background fluorescence using the same culture media and the same NP concentrations without the cells.

[2] = Radiation protection by localized melanin; format: in vivo, rat; conditions: earlier studies
From the text: The same protocol used for curcumin also works for melanin resulting in melanin loaded OA-PMNPs. These particles have potential use as radioprotectants. The melanin loaded OA-PMNPs would be infused into the patient and then magnetically localized in healthy tissue surrounding the diseased tissue targeted for radiation treatment. […] Additionally melanin loaded PMNP can be used as targeted contrast agent for photo-acoustic based imaging.

[3] = test system: human breast cancer xenographs; experiment: MRI of magnetic field induced localization of PMNPs in breast cancer xenograft mice; format: in vivo, mouse
Description: FIGS. 3(A-D). […] By applying a magnet field for 30 minutes at hind end (blue arrows), the enhanced image of hind-end tumor is observed (3B). The enhanced image of the tumor persists for at least several hours. […] The PMNPs are concentrated at site of a lower abdominal mammary tumor (FIG. 3C) using an external magnetic field placed over the tumor for 30 minutes. […] Imaging was performed over several hours without taking the mouse out of MRI machine thereby maintaining all of the imaging parameters.
FIGS. 4(A-B). Compares the MRI contrast data between […] and gadolinium oxide-based PMNPs.
In FIG. 3 are presented results on magnetic immobilization of gadolinium-based PMNPs in a mouse with numerous human breast cancer xenographs. There is no image enhancement for any of the multiple tumors located in different parts of the mouse including one at hind end (green-arrow at bottom of the picture marked tumor). The mouse was then removed and then subjected to thirty minutes of having a magnetic field placed over the tumor demarked by the green arrow. […] The intensity of MRI signal is very similar at both tumor and bladder. This is very different than observed in case of […] where there is a transient image of the bladder and no site specific localization of the contrast agent in any one of the tumors. […]

[4] = Histopathological analysis of multiple tissues (toxicity); format: in vivo, mice; conditions: same dose (1 mg/kg BW)
Description: FIGS. 11(A-B). Systemic effect of the treatment. (A) Representative H&E staining of tissue sections from ADM-PMNP injected mice (1 mg/kg BW)(A). (B) inflammation and hyperplasia were found in colon from mice treated with free ADM (B-left) but not in mice injected with the same dose of ADM-PMNP (B-right).

[5] = test system: MoB-1833 mammary xenografted tumor; experiment: ADM-PMNP plus magnetic field on xenografted human breast cancer, bioluminescence; format: in vivo, mouse; conditions: comparable amount of free drug
Description: FIG. 8 Anti-tumor effect of IV infused Adriamycin loaded PMNP (ADM-PMNP) plus magnetic field treatment on xenografted human breast cancer. Human breast cancer was s.c. xenografted in a female nude mouse. The mouse was injected with 1 mg/kg ADM-PMNP and the tumor was treated with magnetic field for 30 minutes following each injection The mouse was imaged before and after the treatment, the luminescent signals were quantitatively analyzed for change of tumor size. At the end of the treatment, there was a >80% decrease of luminescent signaling in the tumor. The signal recovered partially 3 days after the treatment was ended.
Signal intensity in treated tumor was similar to that in bladder, a major route of PMNP elimination. Next, to assess drug delivery and anti-tumor efficacy, MoB-1833 mammary xenografted tumor-bearing mice were infused with ADM-coated PMNP (ADM-PMNP). ADM use in chemotherapy is limited due to systemic toxicity and it is therefore an excellent model drug for evaluation of the potentially utility of our PMNP platform. […] This ADM dose is 5-20 times lower than doses of free ADM commonly used for in animal studies and similar to doses used clinically. The 4-day treatment achieved a 9-fold reduction in tumor mass (FIG. 8). Tumor rebound upon drug termination confirmed specificity of the drug effect. […] The necrosis was confirmed histologically (FIG. 9Bd-f). […]

[6] = test system: human breast cancer line, MDA-MB-436; experiment: Tumor necrosis in xenografted human breast cancer; format: in vivo, mice; conditions: 1.0 mg/kg

Compound: COc1cc(/C=C/C(=O)CC(=O)/C=C/c2ccc(O)c(OC)c2)ccc1O [Curcumin]
- equivalent Curcumin concentration that decreases cell viability by 20% [1]: 5 µM

Compound: melanin
- radiation damage in irradiated legs [2]: prevent radiation damage

- persistence of MRI contrast ([3]; FIG. 4): short lived
- distribution of contrast agent by MRI ([3]; within a short time, no magnetic field): concentrates in the bladder
Compound: CNC[C@H](O)[C@@H](O)[C@H](O)[C@H](O)CO.CNC[C@H](O)[C@@H](O)[C@H](O)[C@H](O)CO.O=C([O-])CN(CCN(CC(=O)[O-])CC(=O)O)CCN(CC(=O)[O-])CC(=O)O.[Gd+3]

Compound: COc1cccc2c1C(=O)c1c(O)c3c(c(O)c1C2=O)C[C@@](O)(C(=O)CO)C[C@@H]3O[C@H]1C[C@H](N)[C@H](O)[C@H](C)O1 [Adriamycin, doxorubicin]
- colon histology [4]: colonic inflammation and hyperplasia
- anti-tumor effect [5]: relatively ineffective
- tumor necrosis [6]: smaller necrotic lesions
